Activity calls are given as the source filed them. The calls are words filed in the database; no cut-off is given here.
Experiments:
Rattus norvegicus [1] = experiment: Antipyretic activity against LPS-induced polyphasic febrile response in rats assessed as change in core body temperature at 80 mg/kg, po treated 40 mins prior to LPS addition and measured after 10 mins during phase 1 (reference value: 0.85 deg C); assay type: functional, organism-based; conditions: time 50.0 min
Rattus norvegicus [2] = experiment: Antipyretic activity against LPS-induced polyphasic febrile response in rats assessed as return of body temperature to background value at 80 mg/kg, po treated 40 mins prior to LPS addition and measured after 245 mins; assay type: functional, organism-based; conditions: time 285.0 min
Rattus norvegicus [3] = experiment: Antinociceptive activity in zymosan-induced rat arthritis model assessed as nociceptive response inhibition at 80 mg/kg, ig administered once daily for 7 days and measured 1 hr post-zymosan challenge on day 7 by Randall-Selitto test (reference value: -34.6%); assay type: functional; conditions: po, 168 h, time 7 day
Rattus norvegicus [4] = experiment: Antinociceptive activity in zymosan-induced rat model of thermal nociceptive hypersensitivity assessed as nociceptive response inhibition at 80 mg/kg, ig administered once daily for 7 days and measured 1 hr post-zymosan challenge on day 7 by hot-plate test (reference value: -42.4%); assay type: functional; conditions: po, 168 h, time 7 day
[5] = Hepatotoxicity in zymosan-induced rat arthritis model assessed as change in hepatocyte karyoplasm at 180 mg/kg, ig administered once daily for 7 days by hematoxylin-eosin staining based histological analysis; assay type: toxicity, organism-based, Liver; conditions: in vivo, po, 168 h, time 7 day
[6] = Hepatotoxicity in zymosan-induced rat arthritis model assessed as appearance of vacuoles in hepatocyte cytoplasm at 180 mg/kg, ig administered once daily for 7 days by hematoxylin-eosin staining based histological analysis; assay type: toxicity, organism-based, Liver; conditions: in vivo, po, 168 h, time 7 day
[7] = Hepatotoxicity in zymosan-induced rat arthritis model assessed as effect on sinusoids elongation at 180 mg/kg, ig administered once daily for 7 days by hematoxylin-eosin staining based histological analysis; assay type: toxicity, organism-based, Liver; conditions: in vivo, po, 168 h, time 7 day
Rattus norvegicus [8] = experiment: Antipyretic activity against LPS-induced polyphasic febrile response in rats assessed as change in core body temperature at 180 mg/kg, po treated 40 mins prior to LPS addition and measured after 160 mins during phase 1 (reference value: 0.85 deg C); assay type: functional, organism-based; conditions: time 200.0 min
[9] = Hepatotoxicity in zymosan-induced rat arthritis model assessed as change in shape of liver portal tracts at 180 mg/kg, ig administered once daily for 7 days by hematoxylin-eosin staining based histological analysis; assay type: toxicity, organism-based; conditions: in vivo, po, 168 h, time 7 day
[10] = Hepatotoxicity in zymosan-induced rat arthritis model assessed as disruption of hepatocyte membrane at 180 mg/kg, ig administered once daily for 7 days by hematoxylin-eosin staining based histological analysis; assay type: toxicity, organism-based, Liver; conditions: in vivo, po, 168 h, time 7 day
[11] = Hepatotoxicity in zymosan-induced rat arthritis model assessed as change in hepatocyte nucleus size at 180 mg/kg, ig administered once daily for 7 days by hematoxylin-eosin staining based histological analysis; assay type: toxicity, organism-based, Liver; conditions: in vivo, po, 168 h, time 7 day
Rattus norvegicus [12] = experiment: Antinociceptive activity in zymosan-induced rat arthritis model assessed as nociceptive response inhibition at 180 mg/kg, ig administered once daily for 7 days and measured 1 hr post-zymosan challenge on day 7 by Randall-Selitto test (reference value: -34.6%); assay type: functional; conditions: po, 168 h, time 7 day
Rattus norvegicus [13] = experiment: Antinociceptive activity in zymosan-induced rat model of thermal nociceptive hypersensitivity assessed as nociceptive response inhibition at 180 mg/kg, ig administered once daily for 7 days and measured 1 hr post-zymosan challenge on day 7 by hot-plate test (reference value: -42.4%); assay type: functional; conditions: po, 168 h, time 7 day
Rattus norvegicus [14] = experiment: Antipyretic activity against LPS-induced polyphasic febrile response in rats assessed as suppression of rise in core body temperature at 180 mg/kg, po treated 40 mins prior to LPS addition and measured after 160 mins relative to control; assay type: functional; conditions: time 200 min, 3.333 h
Rattus norvegicus [15] = experiment: Antipyretic activity against LPS-induced polyphasic febrile response in rats assessed as suppression of rise in core body temperature at 180 mg/kg, po treated 40 mins prior to LPS addition and measured after 200 mins; assay type: functional, organism-based; conditions: time 240.0 min
Rattus norvegicus [16] = experiment: Antipyretic activity against LPS-induced polyphasic febrile response in rats assessed as suppression of rise in core body temperature at 180 mg/kg, po treated 40 mins prior to LPS addition and measured after 10 mins; assay type: functional, organism-based; conditions: time 50.0 min
[17] = Hepatotoxicity in zymosan-induced rat arthritis model assessed as effect on sinusoids arrangement at 180 mg/kg, ig administered once daily for 7 days by hematoxylin-eosin staining based histological analysis; assay type: toxicity, organism-based, Liver; conditions: in vivo, po, 168 h, time 7 day
[18] = Hepatotoxicity in zymosan-induced rat arthritis model assessed as effect on beam structure of liver at 180 mg/kg, ig administered once daily for 7 days by hematoxylin-eosin staining based histological analysis; assay type: toxicity, organism-based; conditions: in vivo, po, 168 h, time 7 day
[19] = Hepatotoxicity in zymosan-induced rat arthritis model assessed as change in shape of liver central veins at 180 mg/kg, ig administered once daily for 7 days by hematoxylin-eosin staining based histological analysis; assay type: toxicity, organism-based; conditions: in vivo, po, 168 h, time 7 day
[20] = Hepatotoxicity in zymosan-induced rat arthritis model assessed as effect on general architecture of liver at 180 mg/kg, ig administered once daily for 7 days by hematoxylin-eosin staining based histological analysis; assay type: toxicity, organism-based; conditions: in vivo, po, 168 h, time 7 day
[21] = Hepatotoxicity in zymosan-induced rat arthritis model assessed as change in hepatocyte cytoplasmic appearance at 180 mg/kg, ig administered once daily for 7 days by hematoxylin-eosin staining based histological analysis; assay type: toxicity, organism-based, Liver; conditions: in vivo, po, 168 h, time 7 day
[22] = Hepatotoxicity in zymosan-induced rat arthritis model assessed as change in hepatocyte shape at 180 mg/kg, ig administered once daily for 7 days by hematoxylin-eosin staining based histological analysis; assay type: toxicity, organism-based, Liver; conditions: in vivo, po, 168 h, time 7 day

Structure (SMILES): CC(=O)Nc1ccc(O)cc1 [ACETAMINOPHEN]
- ΔTm (Rattus norvegicus [1]): 0.34 °C
- Activity (Rattus norvegicus [2]): Active
- inhibition in vivo at 80 mg/kg (Rattus norvegicus [3]): 28.5%
- inhibition in vivo at 80 mg/kg (Rattus norvegicus [4]): 53%

Structure (SMILES): CCCCCCCC(=O)Nc1ccc(OCC(=O)NCCO)cc1
- Activity [5]: Non-toxic
- Activity [6]: Non-toxic
- Activity [7]: Non-toxic
- ΔTm (Rattus norvegicus [8]): 0.28 °C
- Activity [9]: Non-toxic
- Activity [10]: Non-toxic
- Activity [11]: Non-toxic
- inhibition in vivo at 180 mg/kg (Rattus norvegicus [12]): 48.1%
- inhibition in vivo at 180 mg/kg (Rattus norvegicus [13]): 12.3%
- fold change (FC) (Rattus norvegicus [14]): 3
- Activity (Rattus norvegicus [15]): Active
- Activity (Rattus norvegicus [16]): Active
- Activity [17]: Non-toxic
- Activity [18]: Non-toxic
- Activity [19]: Non-toxic
- Activity [20]: Non-toxic
- Activity [21]: Non-toxic
- Activity [22]: Non-toxic

Source: ChEMBL document CHEMBL6114949, “Synthesis and physiological effects of new 4-aminophenol derivatives as paracetamol analogues” (Bioorg Med Chem Lett, 2025)
